This note sets out measurements from US9907846B2 (priority 2013, dated 2018).

As a reminder, the IC50 is the concentration needed to halve the response being measured. Lower therefore signals inhibition by little substance. A word on the EC50: it is the concentration giving half of the maximal effect.

Series [1] concerns PC-3 prostate cancer cells. The series can be described thus: cells. The series is classed as cell-based, human.
Description: The samples were 5-fold serially diluted in 6 steps starting from the concentration of 100 μg/ml, and incubated with PC-3 prostate cancer cells for 3 days. Then the cells were stained and read by the FMCA method.
Then the cells were stained and the cancer cell killing effect was read by the FMCA method.
Series [2] can be described thus: Water solubility of drugs incorporated into G3 particles. To be noted: drug alone or incorporated into G3 particles.
A further series has as its system HL-60 AML cells. The series can be described thus: FMCA cancer cell killing on HL-60 AML cells. To be noted: 3 days, selected concentrations. The class given is cell-based, human. As to the method:
The FMCA method is based on measurement of fluorescence generated from hydrolysis of fluorescein diacetate (FDA) to fluorescein by cells with intact plasma membranes. After above mentioned incubation for 3 days, the medium was removed by aspiration. After one wash with PBS, 100 μl/well of FDA dissolved in a physiological buffer (10 μg/ml) was added. The plates were incubated for 45 minutes and the generated fluorescence from each well was measured in a 96-well scanning fluorometer. The fluorescence is proportional to the number of intact cells in the well. Quality criteria for a successful analysis included a fluorescence signal in the control wells of more than five times of the mean blank value, a mean co-efficient of variation (CV) in the control wells of less than 30%.
The nanoparticles G3 and G3-DT formulated as described in Ex 1 and 2 were compared with the active component QHC form for the cancer cell killing effect. The samples were 5-fold serial diluted in 6 steps starting from 100 μg/ml, and incubated for 3 days with HL-60 AML cells. Then the cells were stained and read by the FMCA method.
HL-60 AML cells were exposed for 3 days at pre-determined concentrations of G3 and cytarabine separately and in combination of these two as shown on FIG. 7. Then the cells were stained and read for cancer cell killing effect by the FMCA method. […]

Series [3] is described as follows: Detection of vitamin D3 in the water phase (DiaSorin Liaison). The class given is physicochemical. As to the method: Samples with cholecalciferol (vitamin D3) incorporated in G3 particles were analysed at a University Hospital Laboratory on a Liaison automatic instrument. Although the assay (DiaSorin Liaison) is designed to measure 25-HO-D3 it has about one percent cross-reactivity with non-hydroxylated vitamin D3.
First, 50% cholesterol and 50% vitamin D3 were used to form the lipid membrane. Quil A was added into the water phase to generate the G3 particles (for details, please refer to Example 1). 100% Cholesterol and 100% Vitamin D3 in water were used as the controls. Samples with vitamin D3 incorporated in G3 particles were analysed at the Uppsala University Hospital Laboratory on a DiaSorin Liaison automatic instrument.

“And” between values parts separate entries of the source, which are not always exact repeats. Identical values can stand only once.

Description for U937 cells: The read out was the particle formulation i.e. the extraction of the membrane into the quillaja micell, the anticancer cell killing effect tested on U937 cancer cells and the stimulation of IL-8 of the same cells (see Materials and Methods).
The Alamar Blue assay was used essentially according recommendations from the supplier (Serotec Ltd, Oxford, UK). Briefly, the cells were adjusted to 1×10^5 cells/ml in cell culture medium and 200 μl/well cells in 96-well plates (Nunc, Roskilde, Denmark). Then various QS formulations or medium alone (as control) was added in triplicates and incubated 3 days at 37° C. in humidified atmosphere containing 5% CO2. Alamar Blue was added to a final concentration of 10% to the wells after specified time points. The cell metabolic activity was subsequently measured up to 8 hrs.
Free form of QA is used as positive control. The cell metabolism activity is analyzed by Alamar Blue at 570 and 600 nm.

For `CO[C@H]1C(=O)[C@]2(C)[C@@H](OC)C[C@H]3OC[C@@]3(OC(C)=O)[C@H]2[C@H](OC(=O)c2ccccc2)[C@]2(O)C[C@H](OC(=O)[C@H](O)[C@@H](NC(=O)OC(C)(C)C)c3ccccc3)C(C)=C1C2(C)C` [Cabazitaxel, cabazitaxel], the IC50 in series [1] (Homo sapiens, 72 h) was determined as 25.5 µM.
For `N[C@H]1C(O)O[C@H](CO)[C@H](O)[C@@H]1O` (stereo partly drawn) [Galactosamine], the 50% effective concentration (EC50) with U937 cells is 0.367 µg/mL and 0.389 µg/mL and 0.214 µg/mL.
Take `CS(=O)(=O)OCCCCOS(C)(=O)=O` [busulfan]: the “solubility in water (visual)” value in series [2] was “clear solutions”.
For `Nc1ccn([C@@H]2O[C@H](CO)[C@@H](O)[C@@H]2O)c(=O)n1` [cytarabine], the cells killed in the series with HL-60 AML cells is given as under 55%.
Regarding `CC(=O)O[C@@]12CO[C@@H]1C[C@H](O)[C@@]1(C)C(=O)[C@H](O)C3=C(C)[C@@H](OC(=O)[C@H](O)[C@@H](NC(=O)OC(C)(C)C)c4ccccc4)C[C@@](O)([C@@H](OC(=O)c4ccccc4)[C@H]21)C3(C)C` [docetaxel], the cells killed in series [1] (PC-3 cells, 3 days, selected concentrations, FMCA) was over 2%.
Take `C=C1CC[C@H](O)C/C1=C/C=C1\CCC[C@]2(C)[C@@H]([C@H](C)CCCC(C)C)CC[C@@H]12` [vitamin D3 control, cholecalciferol]: the “vitamin D3 detected in the water phase” value in series [3] is listed as “only trace amount”.
